From patent US20250145585A1, “HETEROCYCLIC INHIBITORS OF IGF-1R FOR TREATMENT OF DISEASE” (HORIZON THERAPEUTICS IRELAND DAC, priority 2023, published 2025) come the findings set out here.

The target of this experiment is T1, IGF-1R (Homo sapiens, UniProt P08069).
T1 construct: expressed in transfected cells
The experiment is described as follows: Example B-2: IGF-1R Assay (PathHunter cell lines, EC80 agonist challenge, chemiluminescent detection). It counts as cell-based. The following applies: PathHunter cells, compound 60 minutes at 37° C., EC80 agonist 3 hours; read-out: IC50, Biological Activity against IGF-1R (Table B2). Put shortly:
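Read-out is PathHunter chemiluminescence, developed for 1 h at room temperature after a 3 h room-temperature EC80 agonist challenge that followed 60 min compound pre-treatment at 37° C (1% vehicle). IC50 comes from % inhibition normalized to EC80 and vehicle controls.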

T1 sequence (P08069 31-1367): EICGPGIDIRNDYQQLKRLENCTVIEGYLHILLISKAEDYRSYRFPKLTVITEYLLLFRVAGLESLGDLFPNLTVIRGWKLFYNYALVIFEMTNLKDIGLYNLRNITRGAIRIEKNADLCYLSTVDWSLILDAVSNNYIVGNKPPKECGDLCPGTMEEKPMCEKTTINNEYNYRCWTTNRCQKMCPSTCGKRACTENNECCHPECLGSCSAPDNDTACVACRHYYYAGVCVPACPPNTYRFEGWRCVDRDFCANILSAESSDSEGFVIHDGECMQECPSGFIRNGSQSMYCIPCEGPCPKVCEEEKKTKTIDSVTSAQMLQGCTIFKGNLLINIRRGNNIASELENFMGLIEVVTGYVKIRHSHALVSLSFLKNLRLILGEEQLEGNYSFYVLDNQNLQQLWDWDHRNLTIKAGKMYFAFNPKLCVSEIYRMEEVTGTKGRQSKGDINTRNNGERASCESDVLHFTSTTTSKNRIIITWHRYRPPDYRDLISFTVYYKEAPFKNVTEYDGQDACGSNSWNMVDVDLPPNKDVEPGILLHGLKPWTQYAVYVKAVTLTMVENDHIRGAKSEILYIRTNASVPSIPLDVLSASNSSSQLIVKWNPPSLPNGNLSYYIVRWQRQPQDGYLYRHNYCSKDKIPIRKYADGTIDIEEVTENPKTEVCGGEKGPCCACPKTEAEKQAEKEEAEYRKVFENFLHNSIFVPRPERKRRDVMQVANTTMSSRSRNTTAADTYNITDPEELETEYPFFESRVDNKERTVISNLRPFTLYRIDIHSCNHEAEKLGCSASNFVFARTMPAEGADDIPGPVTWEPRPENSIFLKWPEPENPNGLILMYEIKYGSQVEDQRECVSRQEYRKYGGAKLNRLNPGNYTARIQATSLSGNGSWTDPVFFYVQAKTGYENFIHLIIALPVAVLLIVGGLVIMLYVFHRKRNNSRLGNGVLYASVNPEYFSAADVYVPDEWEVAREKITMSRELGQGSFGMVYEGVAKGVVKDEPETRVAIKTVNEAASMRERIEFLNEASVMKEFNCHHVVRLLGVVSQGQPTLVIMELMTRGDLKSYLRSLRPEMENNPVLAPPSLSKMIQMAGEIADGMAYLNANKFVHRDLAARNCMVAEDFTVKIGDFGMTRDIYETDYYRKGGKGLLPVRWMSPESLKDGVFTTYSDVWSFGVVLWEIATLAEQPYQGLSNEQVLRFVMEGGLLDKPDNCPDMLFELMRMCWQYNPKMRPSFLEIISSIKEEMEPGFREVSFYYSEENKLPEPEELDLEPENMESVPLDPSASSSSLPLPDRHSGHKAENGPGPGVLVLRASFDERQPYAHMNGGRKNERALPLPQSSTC

Broadly, the IC50 is the concentration needed to halve the response being measured. For the molecule `CC1(C)C(=O)N(c2ccc3c(c2)N(S(C)(=O)=O)CC32CC2)C(=O)N1Cc1ccnc(NC2CCOCC2)c1` [Compound 212, 5,5-dimethyl-3-(1′-(methylsulfonyl)spiro[cyclopropane-1,3′-indolin]-6′-yl)-1-((2-((tetrahydro-2H-pyran-4-yl)amino)pyridin-4-yl)methyl)imidazolidine-2,4-dione], the IC50 was ≤ 500 nM. `COC[C@@H](C)Nc1cc(CN2C(=O)N(c3ccc4c(c3)N(S(C)(=O)=O)CC43CC3)C(=O)C2(C)C)ccn1` [Compound 213, (R)-1-((2-((1-methoxypropan-2-yl)amino)pyridin-4-yl)methyl)-5,5-dimethyl-3-(1′-(methylsulfonyl)spiro[cyclopropane-1,3′-indolin]-6′-yl)imidazolidine-2,4-dione]: the concentration for half-maximal inhibition (IC50) is ≤ 500 nM. Regarding `CN1CC2(CCC2)c2ccc(N3C(=O)N(Cc4ccnc(NC5CCOCC5)c4)C(C)(C)C3=O)cc21` [Compound 214, 5,5-dimethyl-3-(1′-methylspiro[cyclobutane-1,3′-indolin]-6′-yl)-1-((2-((tetrahydro-2H-pyran-4-yl)amino)pyridin-4-yl)methyl)imidazolidine-2,4-dione], the concentration for half-maximal inhibition (IC50) was ≤ 500 nM. Take `C[C@@H](CC#N)Nc1cc(CN2C(=O)N(c3ccc4c(c3)N(S(C)(=O)=O)CC4(C)C)C(=O)C2(C)C)ccn1` [Compound 215, (S)-3-((4-((3-(3,3-dimethyl-1-(methylsulfonyl)indolin-6-yl)-5,5-dimethyl-2,4-dioxoimidazolidin-1-yl)methyl)pyridin-2-yl)amino)butanenitrile]: the half-maximal inhibitory concentration (IC50) is ≤ 500 nM.

For the molecule `CC1(C)C(=O)N(c2ccc3c(c2)N(S(C)(=O)=O)CC32CCC2)C(=O)N1Cc1ccnc(N[C@H]2[C@@H]3COC[C@@H]32)c1` [Compound 216, 1-((2-(((1R,5S,6r)-3-oxabicyclo[3.1.0]hexan-6-yl)amino)pyridin-4-yl)methyl)-5,5-dimethyl-3-(1′-(methylsulfonyl)spiro[cyclobutane-1,3′-indolin]-6′-yl)imidazolidine-2,4-dione], the IC50 is ≤ 500 nM. `C[C@@H](CC#N)Nc1cc(CN2C(=O)N(c3ccc4c(c3)N(C)CC4(C)C)C(=O)C2(C)C)ccn1` [Compound 217, (S)-3-((4-((5,5-dimethyl-2,4-dioxo-3-(1,3,3-trimethylindolin-6-yl)imidazolidin-1-yl)methyl)pyridin-2-yl)amino)butanenitrile]: the IC50 is ≤ 500 nM. For `CN1CC(C)(C)c2ccc(N3C(=O)N(Cc4ccnc(N[C@H]5[C@@H]6COC[C@@H]65)c4)C(C)(C)C3=O)cc21` [Compound 218, 1-((2-(((1R,5S,6r)-3-oxabicyclo[3.1.0]hexan-6-yl)amino)pyridin-4-yl)methyl)-5,5-dimethyl-3-(1,3,3-trimethylindolin-6-yl)imidazolidine-2,4-dione] the value was ≤ 500 nM. The figure for `COCCC(C)Nc1cc(CN2C(=O)N(c3ccc4c(c3)N(S(C)(=O)=O)CC4(C)C)C(=O)C2(C)C)ccn1` (stereo not drawn) [Compound 219, 3-(3,3-dimethyl-1-(methylsulfonyl)indolin-6-yl)-1-((2-((4-methoxybutan-2-yl)amino)pyridin-4-yl)methyl)-5,5-dimethylimidazolidine-2,4-dione] is ≤ 500 nM. The figure for `C[C@@H](CC#N)Nc1cc(CN2C(=O)N(c3ccc4c(c3)N(S(C)(=O)=O)CC43CCC3)C(=O)C2(C)C)ccn1` [Compound 221, (S)-3-((4-((5,5-dimethyl-3-(1′-(methylsulfonyl)spiro[cyclobutane-1,3′-indolin]-6′-yl)-2,4-dioxoimidazolidin-1-yl)methyl)pyridin-2-yl)amino)butanenitrile] is ≤ 500 nM; for `CC1(C)C(=O)N(c2ccc3c(c2)N(S(C)(=O)=O)CC32CC2)C(=O)N1Cc1ccnc(N[C@H]2[C@@H]3COC[C@@H]32)c1` [Compound 222, 1-((2-(((1R,5S,6r)-3-oxabicyclo[3.1.0]hexan-6-yl)amino)pyridin-4-yl)methyl)-5,5-dimethyl-3-(1′-(methylsulfonyl)spiro[cyclopropane-1,3′-indolin]-6′-yl)imidazolidine-2,4-dione] it is ≤ 500 nM. Take `CC1(C)C(=O)N(c2ccc3c(c2)N(S(C)(=O)=O)CC32CC2)C(=O)N1Cc1ccnc(N[C@H]2CCOC2)c1` [Compound 223, (S)-5,5-dimethyl-3-(1′-(methylsulfonyl)spiro[cyclopropane-1,3′-indolin]-6′-yl)-1-((2-((tetrahydrofuran-3-yl)amino)pyridin-4-yl)methyl)imidazolidine-2,4-dione]: the IC50 is ≤ 500 nM. The figure for `COCCOC[C@@H](C)Nc1cc(CN2C(=O)N(c3ccc4c(c3)N(S(C)(=O)=O)CC4(C)C)C(=O)C2(C)C)ccn1` [Compound 224, (R)-3-(3,3-dimethyl-1-(methylsulfonyl)indolin-6-yl)-1-((2-((1-(2-methoxyethoxy)propan-2-yl)amino)pyridin-4-yl)methyl)-5,5-dimethylimidazolidine-2,4-dione] is ≤ 500 nM; for `CC(Nc1cc(CN2C(=O)N(c3ccc4c(c3)N(S(C)(=O)=O)CC43CCC3)C(=O)C2(C)C)ccn1)C1CCOC1` (stereo not drawn) [Compound 225, 5,5-dimethyl-3-(1′-(methylsulfonyl)spiro[cyclobutane-1,3′-indolin]-6′-yl)-1-((2-((1-(tetrahydrofuran-3-yl)ethyl)amino)pyridin-4-yl)methyl)imidazolidine-2,4-dione] it is ≤ 500 nM.

As to `CC1(C)C(=O)N(c2ccc3c(c2)N(S(C)(=O)=O)CC32CCC2)C(=O)N1Cc1ccnc(NCC2CCOC2)c1` (stereo not drawn) [Compound 226, 5,5-dimethyl-3-(1′-(methylsulfonyl)spiro[cyclobutane-1,3′-indolin]-6′-yl)-1-((2-(((tetrahydrofuran-3-yl)methyl)amino)pyridin-4-yl)methyl)imidazolidine-2,4-dione], the 50% inhibitory concentration (IC50) is ≤ 500 nM. The figure for `COCCN1CC(C)(C)c2ccc(N3C(=O)N(Cc4ccnc(NC5CCOCC5)c4)C(C)(C)C3=O)cc21` [Compound 227, 3-(1-(2-methoxyethyl)-3,3-dimethylindolin-6-yl)-5,5-dimethyl-1-((2-((tetrahydro-2H-pyran-4-yl)amino)pyridin-4-yl)methyl)imidazolidine-2,4-dione] is ≤ 500 nM; for `COCCS(=O)(=O)N1CC(C)(C)c2ccc(N3C(=O)N(Cc4ccnc(NC5CCOCC5)c4)C(C)(C)C3=O)cc21` [Compound 228, 3-(1-((2-methoxyethyl)sulfonyl)-3,3-dimethylindolin-6-yl)-5,5-dimethyl-1-((2-((tetrahydro-2H-pyran-4-yl)amino)pyridin-4-yl)methyl)imidazolidine-2,4-dione] it is ≤ 500 nM; for `CC1(C)COc2cc(N3C(=O)N(Cc4ccnc(N[C@H]5[C@@H]6COC[C@@H]65)c4)C(C)(C)C3=O)ccc21` [Compound 229, 1-((2-(((1R,5S,6r)-3-oxabicyclo[3.1.0]hexan-6-yl)amino)pyridin-4-yl)methyl)-3-(3,3-dimethyl-2,3-dihydrobenzofuran-6-yl)-5,5-dimethylimidazolidine-2,4-dione] it is ≤ 500 nM. Regarding `C[C@@H](CC#N)Nc1cc(CN2C(=O)N(c3ccc4c(c3)N(S(C)(=O)=O)CC43CC3)C(=O)C2(C)C)ccn1` [Compound 230, (S)-3-((4-((5,5-dimethyl-3-(1′-(methylsulfonyl)spiro[cyclopropane-1,3′-indolin]-6′-yl)-2,4-dioxoimidazolidin-1-yl)methyl)pyridin-2-yl)amino)butanenitrile], the IC50 was ≤ 500 nM. For `CC1(C)C(=O)N(c2ccc3c(c2)N(C(=O)C2CC2)CC32CC2)C(=O)N1Cc1ccnc(N[C@H]2[C@@H]3COC[C@@H]32)c1` [Compound 231, 1-((2-((1R,5S,6r)-3-oxabicyclo[3.1.0]hexan-6-ylamino)pyridin-4-yl)methyl)-3-(1′-(cyclopropanecarbonyl)spiro[cyclopropane-1,3′-indolin]-6′-yl)-5,5-dimethylimidazolidine-2,4-dione] the value was ≤ 500 nM; for `CC1(C)C(=O)N(c2ccc3c(c2)N(S(C)(=O)=O)CC32CCC2)C(=O)N1Cc1ccnc(NCC2CC2(F)F)c1` (stereo not drawn) [Compound 232, 1-((2-(((2,2-difluorocyclopropyl)methyl)amino)pyridin-4-yl)methyl)-5,5-dimethyl-3-(1′-(methylsulfonyl)spiro[cyclobutane-1,3′-indolin]-6′-yl)imidazolidine-2,4-dione], ≤ 500 nM; for `CC1(C)C(=O)N(c2ccc3c(c2)N(S(C)(=O)=O)CC32CCC2)C(=O)N1Cc1ccnc(NCC23CCC(CC2)OC3)c1` [Compound 233, 1-((2-(((2-oxabicyclo[2.2.2]octan-4-yl)methyl)amino)pyridin-4-yl)methyl)-5,5-dimethyl-3-(1′-(methylsulfonyl)spiro[cyclobutane-1,3′-indolin]-6′-yl)imidazolidine-2,4-dione], ≤ 500 nM. On to `CC1(C)C(=O)N(c2ccc3c(c2)N(C(=O)C2CC2)CC32CCC2)C(=O)N1Cc1ccnc(NC2C3COCC32)c1` (stereo not drawn) [Compound 234, 1-((2-((3-oxabicyclo[3.1.0]hexan-6-yl)amino)pyridin-4-yl)methyl)-3-(1′-(cyclopropanecarbonyl)spiro [cyclobutane-1,3′-indolin]-6′-yl)-5,5-dimethylimidazolidine-2,4-dione], for which the IC50 is ≤ 500 nM.

For `COC(C)(C)CNc1cc(CN2C(=O)N(c3ccc4c(c3)N(S(C)(=O)=O)CC43CCC3)C(=O)C2(C)C)ccn1` [Compound 235, 1-((2-((2-methoxy-2-methylpropyl)amino)pyridin-4-yl)methyl)-5,5-dimethyl-3-(1′-(methylsulfonyl)spiro[cyclobutane-1,3′-indolin]-6′-yl)imidazolidine-2,4-dione], the IC50 is 500 to 2000 nM. As for `CC1(C)C(=O)N(c2ccc3c(c2)N(C(=O)C2CC2)CC32CCC2)C(=O)N1Cc1ccnc(N[C@H]2CCOC2)c1` [Compound 236, (S)-3-(1′-(cyclopropanecarbonyl)spiro [cyclobutane-1,3′-indolin]-6′-yl)-5,5-dimethyl-1-((2-((tetrahydrofuran-3-yl)amino)pyridin-4-yl)methyl)imidazolidine-2,4-dione], the IC50 was ≤ 500 nM.
